Columns and labels:
Format in all cases: biochemical
[1] = biological target: BRAF (Homo sapiens, UniProt P15056); test: Kinome profiling BRAF; settings: read-out: Inhibitory activity BRAF; for inhibition at 0.1 µM: 100 nM
Procedure: (§1) . The kinome-wide selectivity was determined following the methods previously reported by Mohedas et al., ACS Chem Biol 2013, 8, 1291-1302 and Sanvitale et al., PLoS One 2013, 8, e62721.

[2] = biological target: LYNA (Homo sapiens, UniProt P07948); test: Kinome profiling LYNA; settings: read-out: Inhibitory activity LYNA; for inhibition at 0.1 µM: 100 nM
Procedure: as §1

[3] = biological target: TNK2 (Homo sapiens, UniProt Q07912); test: Kinome profiling TNK2; settings: read-out: Inhibitory activity TNK2; for inhibition at 0.1 µM: 100 nM
Procedure: as §1

[4] = biological target: FYN (Homo sapiens, UniProt P06241); test: Kinome profiling FYN; settings: read-out: Inhibitory activity FYN; for inhibition at 0.1 µM: 100 nM
Procedure: as §1

[5] = biological target: T1, TYRO3 (Homo sapiens, UniProt Q06418); test: Kinome profiling TYRO3; settings: read-out: Inhibitory activity TYRO3; for inhibition at 0.1 µM: 100 nM
T1 sequence (Q06418 41-890): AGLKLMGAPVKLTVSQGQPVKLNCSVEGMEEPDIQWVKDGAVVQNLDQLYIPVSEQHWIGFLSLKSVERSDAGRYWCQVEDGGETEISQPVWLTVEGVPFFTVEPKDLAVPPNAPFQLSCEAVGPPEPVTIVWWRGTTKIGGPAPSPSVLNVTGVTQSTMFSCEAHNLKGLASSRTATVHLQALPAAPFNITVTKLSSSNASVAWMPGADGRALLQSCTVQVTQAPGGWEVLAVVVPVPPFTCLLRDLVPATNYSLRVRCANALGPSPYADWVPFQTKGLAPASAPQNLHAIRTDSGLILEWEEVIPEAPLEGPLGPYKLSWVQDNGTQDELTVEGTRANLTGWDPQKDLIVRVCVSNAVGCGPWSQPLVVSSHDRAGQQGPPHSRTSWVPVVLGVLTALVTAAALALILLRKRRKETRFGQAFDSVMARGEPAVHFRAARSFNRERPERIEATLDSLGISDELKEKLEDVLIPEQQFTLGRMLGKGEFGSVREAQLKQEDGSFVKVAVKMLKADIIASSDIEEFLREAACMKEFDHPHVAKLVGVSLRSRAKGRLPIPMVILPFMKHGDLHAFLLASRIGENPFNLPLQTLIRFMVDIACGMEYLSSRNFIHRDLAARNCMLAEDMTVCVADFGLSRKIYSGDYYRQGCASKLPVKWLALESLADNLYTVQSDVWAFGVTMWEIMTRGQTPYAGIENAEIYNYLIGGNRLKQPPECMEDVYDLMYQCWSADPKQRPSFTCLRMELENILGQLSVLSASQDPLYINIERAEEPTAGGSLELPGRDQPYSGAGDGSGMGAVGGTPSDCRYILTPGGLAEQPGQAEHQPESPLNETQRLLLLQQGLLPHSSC
Procedure: as §1

[6] = biological target: T2, MST2 (Homo sapiens, UniProt Q13188); test: Kinome profiling MST2; settings: read-out: Inhibitory activity MST2; for inhibition at 0.1 µM: 100 nM
T2 sequence (Q13188 1-491): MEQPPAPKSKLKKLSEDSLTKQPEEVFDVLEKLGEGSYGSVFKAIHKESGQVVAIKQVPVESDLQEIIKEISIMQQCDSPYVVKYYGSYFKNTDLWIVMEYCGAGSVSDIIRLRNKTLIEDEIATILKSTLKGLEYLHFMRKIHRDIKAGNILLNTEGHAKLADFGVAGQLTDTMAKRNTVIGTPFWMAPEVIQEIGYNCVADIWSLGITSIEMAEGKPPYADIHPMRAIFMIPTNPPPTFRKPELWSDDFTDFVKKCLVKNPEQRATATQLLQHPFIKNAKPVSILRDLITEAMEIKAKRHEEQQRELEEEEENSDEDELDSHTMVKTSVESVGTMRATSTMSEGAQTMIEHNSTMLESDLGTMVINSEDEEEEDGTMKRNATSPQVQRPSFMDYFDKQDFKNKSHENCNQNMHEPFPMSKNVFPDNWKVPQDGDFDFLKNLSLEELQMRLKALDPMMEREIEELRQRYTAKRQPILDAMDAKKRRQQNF
Procedure: as §1

[7] = biological target: SYK (Homo sapiens, UniProt P43405); test: Kinome profiling SYK; settings: read-out: Inhibitory activity SYK; for inhibition at 0.1 µM: 100 nM
Procedure: as §1

[8] = biological target: LTK (Homo sapiens, UniProt P29376); test: Kinome profiling LTK; settings: read-out: Inhibitory activity LTK; for inhibition at 0.1 µM: 100 nM
Procedure: as §1

[9] = biological target: ALK (Homo sapiens, UniProt Q9UM73); test: Kinome profiling ALK; settings: read-out: Inhibitory activity ALK; for inhibition at 0.1 µM: 100 nM
Procedure: as §1

LTK, sequence (P29376 17-864): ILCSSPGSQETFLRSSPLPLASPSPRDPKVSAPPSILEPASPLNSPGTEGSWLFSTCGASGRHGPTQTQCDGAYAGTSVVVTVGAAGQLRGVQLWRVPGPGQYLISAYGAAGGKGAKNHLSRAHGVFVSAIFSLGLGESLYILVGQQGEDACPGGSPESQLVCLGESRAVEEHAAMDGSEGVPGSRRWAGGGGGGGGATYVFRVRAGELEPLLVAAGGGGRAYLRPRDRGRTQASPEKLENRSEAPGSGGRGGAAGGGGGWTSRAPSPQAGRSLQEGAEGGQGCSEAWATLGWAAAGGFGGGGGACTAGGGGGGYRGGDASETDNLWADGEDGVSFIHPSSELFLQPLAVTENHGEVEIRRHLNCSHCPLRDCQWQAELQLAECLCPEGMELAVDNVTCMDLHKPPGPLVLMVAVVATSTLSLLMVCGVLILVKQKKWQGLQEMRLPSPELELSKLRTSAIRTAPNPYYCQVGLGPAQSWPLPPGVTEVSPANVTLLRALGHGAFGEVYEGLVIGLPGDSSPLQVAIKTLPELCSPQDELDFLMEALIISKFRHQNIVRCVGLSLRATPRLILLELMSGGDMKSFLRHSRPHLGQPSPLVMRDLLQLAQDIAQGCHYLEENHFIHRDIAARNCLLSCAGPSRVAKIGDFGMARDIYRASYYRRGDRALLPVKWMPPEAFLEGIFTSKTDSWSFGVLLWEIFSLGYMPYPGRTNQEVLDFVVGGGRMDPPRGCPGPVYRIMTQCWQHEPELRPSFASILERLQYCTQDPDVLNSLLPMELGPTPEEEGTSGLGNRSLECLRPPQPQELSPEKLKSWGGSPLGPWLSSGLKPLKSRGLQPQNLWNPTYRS
BRAF, sequence (P15056 whole entry): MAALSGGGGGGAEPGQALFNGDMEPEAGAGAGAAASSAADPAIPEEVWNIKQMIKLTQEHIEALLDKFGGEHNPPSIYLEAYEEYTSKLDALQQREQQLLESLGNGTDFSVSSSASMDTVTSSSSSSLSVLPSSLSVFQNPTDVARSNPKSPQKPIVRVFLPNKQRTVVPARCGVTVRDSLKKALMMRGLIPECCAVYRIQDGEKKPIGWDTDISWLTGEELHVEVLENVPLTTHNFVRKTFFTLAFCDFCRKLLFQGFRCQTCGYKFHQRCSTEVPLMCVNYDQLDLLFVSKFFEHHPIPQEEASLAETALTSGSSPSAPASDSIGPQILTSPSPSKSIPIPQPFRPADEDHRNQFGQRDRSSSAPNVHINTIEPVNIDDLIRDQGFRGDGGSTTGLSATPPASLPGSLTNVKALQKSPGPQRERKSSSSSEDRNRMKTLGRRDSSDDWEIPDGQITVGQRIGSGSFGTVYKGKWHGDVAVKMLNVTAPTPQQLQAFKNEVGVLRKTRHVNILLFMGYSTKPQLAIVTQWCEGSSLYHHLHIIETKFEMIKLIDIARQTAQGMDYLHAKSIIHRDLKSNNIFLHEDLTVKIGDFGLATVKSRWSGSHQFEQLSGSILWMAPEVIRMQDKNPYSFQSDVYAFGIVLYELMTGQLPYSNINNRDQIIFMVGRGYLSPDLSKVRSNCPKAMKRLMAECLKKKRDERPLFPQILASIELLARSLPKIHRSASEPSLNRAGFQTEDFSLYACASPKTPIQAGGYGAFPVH
TNK2, sequence (Q07912 whole entry): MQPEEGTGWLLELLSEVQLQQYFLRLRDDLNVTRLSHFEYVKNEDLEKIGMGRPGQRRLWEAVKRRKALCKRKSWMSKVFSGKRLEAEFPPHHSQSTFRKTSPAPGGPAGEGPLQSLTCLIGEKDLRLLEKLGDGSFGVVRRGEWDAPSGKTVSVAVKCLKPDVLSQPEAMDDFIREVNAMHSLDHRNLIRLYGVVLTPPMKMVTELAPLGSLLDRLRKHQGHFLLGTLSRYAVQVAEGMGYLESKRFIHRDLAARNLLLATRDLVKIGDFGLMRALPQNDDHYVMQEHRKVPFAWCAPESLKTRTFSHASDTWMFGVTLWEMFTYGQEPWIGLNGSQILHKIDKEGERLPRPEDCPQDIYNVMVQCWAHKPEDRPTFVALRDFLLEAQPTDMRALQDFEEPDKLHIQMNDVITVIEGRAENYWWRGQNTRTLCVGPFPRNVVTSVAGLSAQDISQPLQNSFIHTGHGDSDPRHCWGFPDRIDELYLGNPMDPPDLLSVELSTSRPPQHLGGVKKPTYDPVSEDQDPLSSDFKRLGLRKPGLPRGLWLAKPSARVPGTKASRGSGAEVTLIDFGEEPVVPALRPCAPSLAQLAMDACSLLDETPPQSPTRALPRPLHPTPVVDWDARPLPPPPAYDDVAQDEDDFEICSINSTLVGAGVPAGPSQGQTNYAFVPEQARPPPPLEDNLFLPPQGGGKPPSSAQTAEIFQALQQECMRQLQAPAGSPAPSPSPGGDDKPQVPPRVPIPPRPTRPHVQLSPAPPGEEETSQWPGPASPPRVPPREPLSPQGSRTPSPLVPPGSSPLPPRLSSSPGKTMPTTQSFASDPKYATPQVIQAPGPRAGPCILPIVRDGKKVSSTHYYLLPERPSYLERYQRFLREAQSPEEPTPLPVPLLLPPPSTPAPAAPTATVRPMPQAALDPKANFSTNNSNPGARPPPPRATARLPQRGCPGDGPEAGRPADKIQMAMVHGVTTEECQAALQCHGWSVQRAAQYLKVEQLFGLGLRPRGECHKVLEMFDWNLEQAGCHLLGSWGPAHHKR
FYN, sequence (P06241 whole entry): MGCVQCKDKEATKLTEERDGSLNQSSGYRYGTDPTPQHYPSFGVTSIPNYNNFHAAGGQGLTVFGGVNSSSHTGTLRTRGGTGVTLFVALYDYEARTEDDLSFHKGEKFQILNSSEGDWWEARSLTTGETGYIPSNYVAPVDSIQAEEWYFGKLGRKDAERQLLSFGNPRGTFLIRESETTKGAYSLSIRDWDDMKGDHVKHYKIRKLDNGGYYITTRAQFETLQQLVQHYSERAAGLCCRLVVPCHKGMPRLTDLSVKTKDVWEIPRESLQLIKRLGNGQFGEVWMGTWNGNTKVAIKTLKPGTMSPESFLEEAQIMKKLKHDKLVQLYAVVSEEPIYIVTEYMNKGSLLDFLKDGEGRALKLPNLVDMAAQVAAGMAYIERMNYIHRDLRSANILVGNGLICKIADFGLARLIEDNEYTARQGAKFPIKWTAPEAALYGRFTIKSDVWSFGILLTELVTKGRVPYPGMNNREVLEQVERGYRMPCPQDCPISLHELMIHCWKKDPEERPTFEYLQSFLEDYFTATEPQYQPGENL
LYNA, sequence (P07948 whole entry): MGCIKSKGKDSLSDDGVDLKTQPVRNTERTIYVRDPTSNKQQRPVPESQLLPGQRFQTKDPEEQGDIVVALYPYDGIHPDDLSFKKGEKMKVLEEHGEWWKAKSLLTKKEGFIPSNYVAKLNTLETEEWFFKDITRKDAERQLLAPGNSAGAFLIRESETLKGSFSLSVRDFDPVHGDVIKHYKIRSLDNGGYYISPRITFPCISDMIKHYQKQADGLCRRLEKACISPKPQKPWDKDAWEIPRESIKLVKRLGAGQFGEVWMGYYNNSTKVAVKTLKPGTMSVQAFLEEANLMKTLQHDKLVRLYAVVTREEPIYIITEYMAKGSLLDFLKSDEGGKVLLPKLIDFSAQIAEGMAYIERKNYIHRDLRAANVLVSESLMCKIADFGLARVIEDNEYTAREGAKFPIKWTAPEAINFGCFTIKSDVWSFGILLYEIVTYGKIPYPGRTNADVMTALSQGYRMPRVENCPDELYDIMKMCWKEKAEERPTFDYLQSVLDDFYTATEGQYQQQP

Structure (SMILES) | inhibition at 0.1 µM [1] | inhibition at 1 µM [1] | inhibition at 0.1 µM [2] | inhibition at 1 µM [2] | inhibition at 0.1 µM [3] | inhibition at 1 µM [3] | inhibition at 0.1 µM [4] | inhibition at 1 µM [4] | inhibition at 0.1 µM [5] | inhibition at 1 µM [5] | inhibition at 0.1 µM [6] | inhibition at 1 µM [6] | inhibition at 0.1 µM [7] | inhibition at 1 µM [7] | inhibition at 0.1 µM [8] | inhibition at 1 µM [8] | inhibition at 0.1 µM [9] | inhibition at 1 µM [9]
COc1cc(-c2cc(-c3ccc(N4CCNCC4)cc3)cnc2C)cc(OC)c1OC [Compound 10, 1-(4-(6-methyl-5-(3,4,5-trimethoxyphenyl)pyridin-3-yl)phenyl)piperazine] | 0% | 1% | 3% | 29% | 6% | 35% | 8% | 36% | 4% | 21% | 0% | 1% | 0% | -1% | 4% | 10% | 2% | 7%
COc1cc(-c2cc(-c3ccc(N4CCNCC4)cc3)cnc2N)cc(OC)c1OC [Compound 15, 5-(4-(piperazin-1-yl)phenyl)-3-(3,4,5-trimethoxyphenyl)pyridin-2-amine] | 8% | 27% | 41% | 84% | 6% | 44% | 40% | 79% | 23% | 75% | 3% | 4% | 1% | -4% | 13% | 60% | 6% | 36%
